# Laboratory results: patent publication US7511041B2, “Fused azole-pyrimidine derivatives” (Bayer Pharmaceuticals Corporation, priority 2002, dated 2009)
# Where two headings read alike, the source gives them in different places.
# Experiments:
# [1] = biological target: T1, Recombinant human PI3Kγ (full length human PI3K p110γ) (Homo sapiens, UniProt P48736); test: Kinase assay of PI3Kγ (solid-phase lipid kinase assay); assay type: biochemical
# T1 construct: full length human PI3K p110γ fused with a His6-tag at the C-terminus; His6 (C); purchased ALEXIS BIOCHEMICALS #201-055-C010; host or cells: S. frugiperda 9 insect cells
# From the text: [Determination of IC50 Values of Compounds in Kinase Assay of PI3Kγ]
# Chemicals and Assay Materials
# LABORATORIES (Toronto, Canada). Recombinant human PI3Kγ (full length human PI3K p110γ fused with a His6-tag at the C-terminus expressed in S. frugiperda 9 insect cells) was obtained from ALEXIS BIOCHEMICALS (#201-055-C010; San Diego, Calif.). […] BIOTECH (Buckinghamshire, UK) and ROCHE DIAGNOSTICS (Mannheim, Germany), respectively. Scintillation cocktails and MicroScint PS™ were purchased from PACKARD (Meriden, Conn.). Maxisorp™ plates were purchased from NALGE NUNC INTERNATIONAL K.K. (Tokyo, Japan). All other chemicals not further specified were from WAKO PURE CHEMICALS (Osaka, Japan).
# Solid-Phase Lipid Kinase Assay
# The plates were subsequently air-dried by incubation for at least 2 hours in a fume hood. The reaction was set up by mixing 25 μl/well of assay buffer 2× (100 mM MOPSO/NaOH, 0.2 M NaCl, pH 7.0, 8 mM MgCl2, 2 mg/ml BSA (fatty acid-free)) and 50 ng/well PI3Kγ in the lipid pre-coated plate and 10× test compounds were added in 2% DMSO. The reaction was started by adding 20 μl/well of ATP mix (final 10 μM ATP; 0.05 μCi/well [γ^33P]ATP). After incubation at RT for 2 hours, the reaction was terminated by adding 50 μl/well stop solution (50 mM EDTA, pH 8.0). The plate was then washed twice with Tris-buffered saline (TBS, pH 7.4). MicroScint PS™ (PACKARD) scintillation mix was added at 100 μl/well, and radioactivity was counted by using a TopCount™ (PACKARD) scintillation counter.
# The inhibition percent at each concentration of compound was calculated, and IC50 values were determined from the inhibition of curve.
# [2] = Table 1, isozyme not given, read-out: in vitro
# [3] = in vitro PI3K-γ inhibitory activity, class symbols A-D, read-out: in vitro PI3K-gamma
# [4] = in vitro PI3K-γ inhibitory activity, class symbols, read-out: in vitro PI3K-gamma
# T1 sequence (P48736 whole entry, the tested form may be a part): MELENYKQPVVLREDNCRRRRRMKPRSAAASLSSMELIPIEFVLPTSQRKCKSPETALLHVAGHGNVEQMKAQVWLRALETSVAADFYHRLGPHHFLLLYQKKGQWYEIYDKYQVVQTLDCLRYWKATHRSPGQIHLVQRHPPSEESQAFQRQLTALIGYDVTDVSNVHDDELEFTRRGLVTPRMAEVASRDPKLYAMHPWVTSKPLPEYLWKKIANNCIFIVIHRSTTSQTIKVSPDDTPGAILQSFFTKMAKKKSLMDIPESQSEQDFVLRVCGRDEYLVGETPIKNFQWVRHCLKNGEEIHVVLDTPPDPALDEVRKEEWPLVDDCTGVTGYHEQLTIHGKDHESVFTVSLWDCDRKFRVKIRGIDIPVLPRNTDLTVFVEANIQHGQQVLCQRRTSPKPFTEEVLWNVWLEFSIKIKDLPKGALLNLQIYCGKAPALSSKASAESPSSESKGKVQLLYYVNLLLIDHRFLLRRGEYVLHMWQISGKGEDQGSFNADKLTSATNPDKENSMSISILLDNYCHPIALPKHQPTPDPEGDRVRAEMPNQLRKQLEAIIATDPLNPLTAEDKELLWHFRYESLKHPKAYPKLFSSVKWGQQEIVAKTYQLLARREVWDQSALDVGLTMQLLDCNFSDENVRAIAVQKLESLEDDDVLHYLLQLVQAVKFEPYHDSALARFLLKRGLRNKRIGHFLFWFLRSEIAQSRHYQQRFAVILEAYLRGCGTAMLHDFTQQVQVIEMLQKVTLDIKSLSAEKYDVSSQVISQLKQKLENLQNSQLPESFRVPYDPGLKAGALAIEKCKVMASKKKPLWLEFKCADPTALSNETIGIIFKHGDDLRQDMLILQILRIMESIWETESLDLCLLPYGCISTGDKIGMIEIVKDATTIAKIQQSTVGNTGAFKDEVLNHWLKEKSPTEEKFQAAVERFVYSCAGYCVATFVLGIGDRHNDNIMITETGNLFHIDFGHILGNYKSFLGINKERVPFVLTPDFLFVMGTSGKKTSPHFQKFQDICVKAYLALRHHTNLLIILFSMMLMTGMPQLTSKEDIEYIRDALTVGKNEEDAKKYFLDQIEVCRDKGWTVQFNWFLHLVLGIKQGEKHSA
melting point,"IC50 [1, 2]","IC50 [1, 3]","IC50 [1, 4]",Compound
204 °C,100 to 500 nM,,,O/C(=C\C1=Nc2cc(CN3CCOCC3)ccc2C2=NCCN12)c1cccnc1 [Example 1-111]
346 °C (dec.),,> 2000 nM,,Cl.O=C(NC1=Nc2ccccc2C2=NCCN12)c1cccnc1O [Example 2-284]
233 °C,100 to 500 nM,,,Cl.O/C(=C\C1=Nc2cc(Br)ccc2C2=NCCN12)c1cccnc1 [Example 1-118]
199 °C (dec.),,,100 to 500 nM,Cc1ncccc1C(=O)NC1=Nc2cc(N3CCOCC3)ccc2C2=NCCN12 [Example 2-12]
328 °C,,,100 to 500 nM,Cl.O=C(NC1=Nc2cc(Cl)ccc2C2=NCCN12)c1cccs1 [Example 2-41]
> 280 °C,,,100 to 500 nM,CC(=O)Nc1ccc(C(=O)NC2=Nc3c(Cl)cccc3C3=NCCN23)cn1 [Example 2-104]
292 °C,< 100 nM,,,COc1cc2c(cc1OC)C1=NCCN1C(/C=C(\O)c1sc(C)nc1C)=N2 [Example 1-60]
> 280 °C,,,100 to 500 nM,Cl.O=C(NC1=Nc2c(Cl)cccc2C2=NCCN12)c1cccnc1 [Example 2-103]
215 °C (dec.),,,100 to 500 nM,Nc1ncccc1C(=O)NC1=Nc2ccccc2C2=NCCN12 [Example 2-133]
> 300 °C,100 to 500 nM,,,Cl.O/C(=C\C1=Nc2ccccc2C2=NCCN12)c1nccs1 [Example 1-155]
243 °C,,,< 100 nM,Cl.O=C(NC1=Nc2cc(Br)ccc2C2=NCCN12)c1cccnc1 [Example 2-42]
> 290 °C,100 to 500 nM,,,Cc1cc(Br)c2c(c1)C1=NCCN1C(/C=C(\O)c1cccnc1)=N2.Cl [Example 1-45]
> 250 °C,,,100 to 500 nM,Cc1ccsc1C(=O)NC1=Nc2ccccc2C2=NCCN12.Cl [Example 2-182]
184 to 186 °C,100 to 500 nM,,,COc1c(OCC(=O)OC(C)(C)C)ccc2c1N=C(/C=C(\O)c1cccnc1)N1CCN=C21 [Example 1-18]
208 to 210 °C,,> 2000 nM,,CN(C=O)c1ccc(C(=O)NC2=Nc3ccccc3C3=NCCN23)cc1 [Example 2-263]
211 to 212 °C,100 to 500 nM,,,OCCOc1cccc2c1N=C(/C=C(\O)c1cccnc1)N1CCN=C21 [Example 1-91]
280 to 281 °C,,,100 to 500 nM,Cc1noc(C)c1C(=O)NC1=Nc2ccccc2C2=NCCN12.Cl [Example 2-187]
248 °C,100 to 500 nM,,,Cc1cccc2c1N=C(/C=C(\O)c1cccnc1)N1CCN=C21 [Example 1-75]
273 °C (dec.),< 100 nM,,,Cl.O=C(O)CCc1ccc2c(c1)N=C(/C=C(\O)c1cccnc1)N1CCN=C21 [Example 1-201]
275 °C,100 to 500 nM,,,O/C(=C\C1=Nc2c(cccc2C(F)(F)F)C2=NCCN12)c1cccnc1 [Example 1-80]
207 °C,,,< 100 nM,Cc1ccc2c(c1)N=C(NC(=O)c1cccnc1)N1CCN=C21 [Example 2-27]
244 to 245 °C,,> 2000 nM,,COc1ccc(C(=O)NC2=Nc3ccccc3C3=NCCN23)c(OC)n1 [Example 2-286]
204 to 205 °C,100 to 500 nM,,,O/C(=C\C1=Nc2ccccc2C2=NCCN12)c1ccncc1 [Example 1-175]
254 °C (dec.),100 to 500 nM,,,COc1c(OCC2CC2)ccc2c1N=C(/C=C(\O)c1cccnc1)N1CCN=C21 [Example 1-15]
311 °C (dec.),,500 to 2000 nM,,CN(C)c1ccc(C(=O)NC2=Nc3ccccc3C3=NCCN23)cn1.Cl [Example 2-283]
224 °C,100 to 500 nM,,,Cc1ccc2c(c1)N=C(/C=C(\O)c1cccnc1)N1CCN=C21 [Example 1-119]

melting point,"IC50 [1, 2]","IC50 [1, 3]","IC50 [1, 4]",Compound
203 to 205 °C,< 100 nM,,,OCCCOc1cccc2c1N=C(/C=C(\O)c1cccnc1)N1CCN=C21 [Example 1-92]
196 to 197 °C,,,100 to 500 nM,CNc1ccc(C(=O)NC2=Nc3ccccc3C3=NCCN23)cn1 [Example 2-153]
148 °C,100 to 500 nM,,,O/C(=C\C1=Nc2ccccc2C2=NCCN12)c1ccno1 [Example 1-152]
264 to 265 °C,< 100 nM,,,COc1c(OCCO)ccc2c1N=C(/C=C(\O)c1cccnc1)N1CCN=C21 [Example 1-16]
320 °C (dec.),,,< 100 nM,CC(=O)Nc1ccc(C(=O)NC2=Nc3ccccc3C3=NCCN23)cn1 [Example 2-151]
296 °C (dec.),,,100 to 500 nM,Cc1nc2ncccc2cc1C(=O)NC1=Nc2ccccc2C2=NCCN12 [Example 2-174]
> 300 °C,100 to 500 nM,,,CC(=O)Nc1ccc(/C(O)=C/C2=Nc3nc(C)ccc3C3=NCCN23)cn1 [Example 1-161]
245 °C (dec.),< 100 nM,,,COc1c(OCC(=O)NC(C)C)ccc2c1N=C(/C=C(\O)c1cccnc1)N1CCN=C21.Cl [Example 1-26]
235 °C (dec.),,,100 to 500 nM,COc1cc2c(c(OC)c1C)N=C(NC(=O)c1cccnc1)N1CCN=C21.Cl [Example 2-76]
219 to 220 °C,,> 2000 nM,,O=C(NC1=Nc2ccccc2C2=NCCN12)c1ccc(C(F)(F)F)nc1 [Example 2-280]
210 °C,,,< 100 nM,Cc1ccc2c(c1)C1=NCCN1C(NC(=O)c1cccnc1)=N2 [Example 2-90]
285 °C (dec.),,,100 to 500 nM,Cc1nocc1C(=O)NC1=Nc2ccccc2C2=NCCN12.Cl [Example 2-186]
> 290 °C,,,< 100 nM,Cc1ccc2c(c1)C1=NCCN1C(NC(=O)c1ccc3[nH]cnc3c1)=N2.Cl [Example 2-92]
> 300 °C,< 100 nM,,,Cl.O/C(=C\C1=Nc2ccccc2C2=NCCN12)c1ccsc1 [Example 1-149]
272 °C,,> 2000 nM,,CN(C)c1ccc2c(c1)C1=NCCN1C(NC(=O)c1cccs1)=N2 [Example 2-346]
154 °C (dec.),,> 2000 nM,,CC(C)CC(=O)NC1=Nc2ccccc2C2=NCCN12 [Example 2-329]
260 °C (dec.),100 to 500 nM,,,COc1cc2c(cc1OC)C1=NCCN1C(/C=C(\O)c1ccc(C)nc1)=N2.Cl [Example 1-50]
310 °C (dec.),,,< 100 nM,Cl.O=C(NC1=Nc2ccccc2C2=NCCN12)c1cccs1 [Example 2-179]
> 300 °C,,100 to 500 nM,,O=C(NC1=Nc2ccc(O)cc2C2=NCCN12)c1cccnc1 [Example 2-210]
219 °C (dec.),,,100 to 500 nM,CN(C)/C=N/c1cncc(C(=O)NC2=Nc3ccccc3C3=NCCN23)c1 [Example 2-146]
124 °C,,> 2000 nM,,O=C(NC1=Nc2ccc(N3CCOCC3)cc2C2=NCCN12)c1cccs1 [Example 2-348]
270 °C (dec.),< 100 nM,,,COc1ccc2c(c1OC)N=C(/C=C(\O)c1ccc(NC(C)=O)nc1)N1CCN=C21 [Example 1-12]
286 °C,,,< 100 nM,O=C(NC1=Nc2c(cccc2C(F)(F)F)C2=NCCN12)c1ccc2[nH]cnc2c1 [Example 2-112]
230 °C,100 to 500 nM,,,O/C(=C\C1=Nc2cnccc2C2=NCCN12)c1cccnc1 [Example 1-164]
265 to 267 °C,,> 2000 nM,,O=C(NC1=Nc2ccccc2C2=NCCN12)c1cccc([N+](=O)[O-])c1 [Example 2-252]
169 to 170 °C,,> 2000 nM,,CSc1ccc(C(=O)NC2=Nc3ccccc3C3=NCCN23)cc1 [Example 2-243]

Compound,melting point,"IC50 [1, 2]","IC50 [1, 3]","IC50 [1, 4]"
O=C(NC1=Nc2ccc([N+](=O)[O-])cc2C2=NCCN12)c1cccnc1.O=C(O)C(F)(F)F [Example 2-362],224 °C,,500 to 2000 nM,
Nc1cccc(C(=O)NC2=Nc3ccccc3C3=NCCN23)c1.O=C(O)C(F)(F)F [Example 2-162],191 °C (dec.),,,100 to 500 nM
O=C(NC1=Nc2ccccc2C2=NCCN12)c1ccc2[nH]nnc2c1.O=C(O)C(F)(F)F [Example 2-310],252 °C (dec.),,100 to 500 nM,
O=C(NC1=Nc2ccccc2C2=NCCN12)c1ccccc1[N+](=O)[O-].O=C(O)C(F)(F)F [Example 2-251],198 to 200 °C,,> 2000 nM,
